Test results: patent EP1357114A1, “Substituted pyrimidin-2,4(1H,3H)-diones as inhibitors of Matrix Metalloproteinases (MMP)” (IBFB GmbH Privates Institut für biomedizinische Forschung …, priority 2002, dated 2003)

Key:
MMP-2 = target: T1, MMP-2 (Homo sapiens, UniProt P08253); assay: Quantitative fluorescence assay for matrix metalloproteinases (cleavage of Mca-Pro-Leu-Gly-Leu-Dpa-Ala-Arg-NH2); format: biochemical
T1 construct: endogenous in cells; host or cells: cultured human dermal fibroblasts (secreted into conditioned medium)
T1 sequence (P08253 110-660): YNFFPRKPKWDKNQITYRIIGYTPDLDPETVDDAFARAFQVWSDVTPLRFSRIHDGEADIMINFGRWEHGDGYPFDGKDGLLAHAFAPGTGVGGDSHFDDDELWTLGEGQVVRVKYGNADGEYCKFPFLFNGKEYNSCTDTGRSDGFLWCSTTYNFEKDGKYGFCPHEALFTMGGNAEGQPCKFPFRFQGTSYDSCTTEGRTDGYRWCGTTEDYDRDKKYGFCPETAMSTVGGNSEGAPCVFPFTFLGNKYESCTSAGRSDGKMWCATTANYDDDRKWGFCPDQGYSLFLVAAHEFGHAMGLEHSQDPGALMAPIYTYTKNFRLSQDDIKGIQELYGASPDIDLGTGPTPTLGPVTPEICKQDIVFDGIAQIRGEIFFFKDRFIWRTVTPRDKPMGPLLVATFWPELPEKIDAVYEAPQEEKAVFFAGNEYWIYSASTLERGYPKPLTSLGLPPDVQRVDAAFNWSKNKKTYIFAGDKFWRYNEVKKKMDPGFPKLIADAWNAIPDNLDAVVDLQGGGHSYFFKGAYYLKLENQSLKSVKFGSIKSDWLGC
Protocol: MMP-2 (Gelatinase) wird von kultivierten dermalen Fibroblasten in beträchtlichen Mengen in das Kulturmedium abgegeben und ist daher leicht zugänglich. Die sezernierte und inaktive Proform des Enzyms wird durch Behandlung mit organischen Quecksilberverbindungen in die enzymatisch aktive Form überführt.
Hierzu werden humane dermale Fibroblasten nach etablierten Standardmethoden gewonnen und kultiviert. Aus dem konditionierten Zellmedium wird humane MMP-2 durch folgende Methode gewonnen: 500 ml Zellmedium werden 30 min. bei 10 000 g zentrifugiert und der Überstand mit einem Vol. 2-fach Bindungspuffer (40 mM Tris-HCI pH 7,5 , 10 mM CaCl2, 1 M NaCI, 0,2% (v/v) Triton X-100) versetzt. Dazu gibt man 6 ml Gelatine-Agarose, welche mit Bindungspuffer äquilibriert wurde, und schüttelt für 1 Std. auf Eis. Die beladene Gelatine-Agarose wird in eine Säule überführt und mit mindestens 10 Vol. Bindungspuffer proteinfrei gespült. Die Elution der gebundenen MMP-2 erfolgt mit 2 Gelvolumen Bindungspuffer plus 5% (v/v) DMSO. Das Eluat enthält die humane MMP-2 als inaktives Zymogen in stark angereicherter Form. Fremdproteine sind TIMP-2 und Fibronektin; das letztere kann durch eine Gelfiltration an Sephacryl S-200 abgetrennt werden. Laufpuffer ist 100 mM Tris-HCI pH 7,5, 10 mM CaCl2, 100 mM NaCI, 0,05% (v/v) Brij 35. Die inaktive humane MMP-2 wird durch zweistündige Inkubation bei 37 °C in Gegenwart von 1 mM p-Aminophenylmercuric Acetate (APMA) aktiviert. Zur Beseitigung von APMA nach Aktivierung wird die Probe an Sephadex G-25 in Laufpuffer (s.o.) filtriert.
(§1) Durch enzymatische Spaltung des synthetischen Substrates Mca-Pro-Leu-Gly-Leu-Dpa-Ala-Arg-NH2 durch die jeweilige Kollagenase, wird die fluoreszente Gruppe Mca ((7-Methoxycoumarin-4-yl)acetyl) vom internen Quencher Dpa ((N-3-(2,4-dinitrophenyl)-L-2,3-diaminopropienyl) getrennt. Dabei erfolgt eine starke Zunahme der Fluoreszenz im Messansatz, die am Fluorimeter quantifiziert werden kann (λex 328 nm, λem 393 nm) und innerhalb der ersten Minuten linear verläuft. Eine gewisse Spezifität des Tests für Matrix-Metalloproteinasen ergibt sich einerseits aus der Aminosäuresequenz -Pro-Leu-Gly-Leu- im Substrat und andererseits durch die gewählten Inkubationsbedingungen. Matrix-Metalloproteinasen spalten das Substrat an der Bindung Gly-Leu. Gemessen wird die proteolytische Restaktivität vorinkubierter Ansätze von Enzym und Inhibitor, wobei die Substrat- und Enzymkonzentration konstant gehalten und die Inhibitorkonzentration variiert wurde. Es wurden für jeden getesteten Inhibitor drei Messreihen mit unterschiedlicher Substratkonzentration aufgenommen. Aus der zeitabhängigen Fluoreszenzzunahme wird die Enzymaktivität in Fluoreszenzeinheiten pro min berechnet. Die Bestimmung der Ki-Werte erfolgte graphisch nach der Methode von DIXON (1953) durch Auftragung der reziproken Reaktionsgeschwindigkeit 1/v (y-Achse) gegen Inhibitorkonzentration (x-Achse).
(§2) 1984 µl Messpuffer (100mM Tris-HCI pH 7,5, 100 mM NaCI, 10 mM CaCl2, 0,05% Brij 35 bzw. 50 mM MES-NaOH, pH 6.0, 10 mM CaCl2, 100 mM NaCI, 0.05% Brij 35 im Fall der KaDo MMP-3) 2 µl Inhibitor, gelöst in DMSO, bzw. DMSO allein (nichtinhibierender Ansatz) 4 µl Enzym • 5 min. Vorinkubation des Enzym-Inhibitor-Gemischs bei Raumtemperatur unter Rühren • Start der Reaktion mit 10 µl Substrat gelöst in DMSO • Aufzeichnung der zeitabhängigen Fluoreszenzzunahme über 2 - 10 min.

[1] = target: T2, katalytische Domäne der MMP-3 (Homo sapiens, UniProt P08254); assay: as above; format: biochemical; conditions: for Ki: Dixon plot
T2 construct: Die katalytische Domäne der humanen MMP-3 wurde nach den Angaben in folgender Publikation kloniert; made in house
T2 sequence (P08254 100-272 limits assumed): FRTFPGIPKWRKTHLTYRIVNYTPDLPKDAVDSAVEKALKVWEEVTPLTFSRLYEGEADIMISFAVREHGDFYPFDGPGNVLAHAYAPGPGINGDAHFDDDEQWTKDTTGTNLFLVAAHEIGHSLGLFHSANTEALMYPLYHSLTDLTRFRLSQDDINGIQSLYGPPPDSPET
Protocol: Die katalytische Domäne der humanen MMP-3 wurde nach den Angaben in folgender Publikation kloniert: Ye Q-Z, Johnson LL, Hupe DJ, Baragi V: Purification and Characterization of the Human Stromelysin Catalytic Domain Expressed in Escherichia coli. Biochemistry (1992), 31, 11231-11235). Nach Rückfaltung des Enzyms und Gelfiltration an Sephadex G-50 (Laufpuffer 100 mM Tris-HCI pH 7,5, 10 mM CaCl2, 100 mM NaCI, 0,05% Brij 35) erhielten wir ein zu 95% reines Präparat.
as §1, §2

Row | Structure (SMILES) | MMP-2 Hemmung (MMP-2; bei 10 µM) | MMP-3 Hemmung ([1]; bei 10 µM) | also measured
1 | COc1cc2[nH]c(=O)n(CC(S)CS)c(=O)c2cc1OC (racemic) [Beispiel 7, (R,S)-3-(2,3-Dimercaptopropyl)-6,7-dimethoxy-chinazolin-2,4-(1H,3H)dion] | – | – | MMP-2 Hemmung (MMP-2; bei 1 µM): 20% Hemmung bei 1 µM; Ki [1]: 1000 nM
2 | O=c1[nH]c2sc(-c3ccccc3)cc2c(=O)n1CC(S)CS (racemic) [Beispiel 11, (R,S)-3-(2,3-Dimercaptopropyl)-6-phenylthieno[2,3-d]pyrimidin-2,4(1H,3H)-dion] | – | – | MMP-2 Hemmung (MMP-2; bei 1 µM): 15% Hemmung bei 1 µM; MMP-3 Hemmung ([1]; result in words, concentration not given): Keine Hemmung
3 | O=c1[nH]c2cc(Cl)ccc2c(=O)n1CC(S)CS (racemic) [Beispiel 3, (R,S)-7-Chlor-3-(2,3-dimercaptopropyl)chinazolin-2,4-(1H,3H)dion] | 90% Hemmung bei 10 µM | 97% Hemmung bei 10 µM | –
4 | O=c1[nH]c2ccsc2c(=O)n1CC(S)CS (racemic) [Beispiel 9, (R,S)-3-(2,3-Dimercaptopropyl)thieno[3,2-d]pyrimidin-2,4(1H,3H)-dion] | – | – | MMP-2 Hemmung (MMP-2; bei 3 µM): 50% Hemmung bei 3 µM; Ki [1]: 250 nM
5 | O=C(NCc1ccccc1)c1ccc2c(=O)n(CC(S)CS)c(=O)[nH]c2c1 (racemic) [Beispiel 8, (R,S)-N-Benzyl-3-(2,3-dimercaptopropyl)-2,4-dioxo-1,2,3,4-tetrahydrochinazolin-7-carboxamide] | – | – | MMP-2 Hemmung (MMP-2; bei 5 µM): 50% Hemmung bei 5µM; MMP-3 Hemmung ([1]; bei 5 µM): 30% Hemmung bei 5 µM
6 | O=c1[nH]c2sc3c(c2c(=O)n1CC(S)CS)CCCC3 (racemic) [Beispiel 10, (R,S)-3-(2,3-Dimercaptopropyl)-5,6,7,8-tetrahydro[1]benzothieno[2,3-d]pyrimidin-2,4(1H,3H)-dion] | 52% Hemmung bei 10 µM | 55% Hemmung bei 10 µM | –

Continued, in another order:

Row | MMP-2 Hemmung (MMP-2; bei 10 µM) | MMP-3 Hemmung ([1]; bei 10 µM) | Structure (SMILES) | also measured
7 | 70% Hemmung bei 10 µM | 70% Hemmung bei 10 µM | O=c1[nH]c2ccccc2c(=O)n1CC(S)CS (racemic) [Beispiel 1, (R,S)-3-(2,3-Dimercaptopropyl)chinazolin-2,4-(1H,3H)dion] | –
8 | 50% Hemmung bei 10 µM | 15% Hemmung bei 10 µM | O=c1[nH]c2ccc(Cl)cc2c(=O)n1CC(S)CS (racemic) [Beispiel 4, (R,S)-6-Chlor-3-(2,3-dimercaptopropyl)chinazolin-2,4-(1H,3H)dion] | –
9 | 50% Hemmung bei 10 µM | 90% Hemmung bei 10 µM | Cc1cccc2[nH]c(=O)n(CC(S)CS)c(=O)c12 (racemic) [Beispiel 5, (R,S)-3-(2,3-Dimercaptopropyl)-5-methyl-chinazolin-2,4-(1H,3H)dion] | –
